Reference: patent publication US8680113B2, “BMI-1 protein expression modulators” (PTC Therapeutics, Inc., priority 2008, dated 2014)

What follows are compounds tested on Bmi-1 (assay: Sandwich ELISA Assay (Bmi-1 ELISA in HT-1080 cells)).
Format: cell-based, human
Protocol: Cell Seeding and Compound Treatment (Day 1):
HT-1080 cells were seeded at 8000 cells/well (50 uL) in 96-well tissue culture plates. After the cells become adherent (3-4 hours), 2× diluted stocks of compounds in 50 uL DMEM containing 1% DMSO (final DMSO concentration was 0.5%) were added and the plates were incubated at 37° C. under 5% CO2 for 40-48 hours
ELISA Plate First Antibody Preparation (Day 2):
The First Antibody (Millipore Mouse, monoclonal to mouse Bmi-1, clone F6, catalog #05-637) diluted to 2 ug/mL in PBS was added (100 uL) to each well of a Nunc MaxiSorp 96-well ELISA plate. The plate was covered with a plate seal and allowed to stand overnight.
Cell Lysate Preparation (Day 3):
Fresh 1× Lysis buffer was prepared on the day of the assay as follows: 1 mM EDTA, 150 mM NaCl, 0.5% Triton-X 100, 10 mM NaF, 20 mM B-Glycerophosphate, 1 mM DTT (in PBS, pH 7.2-7.4) and 1×HALT protease inhibitor cocktail (Pierce #78410).
1× Lysis Buffer (40 uL) was added to each well and the plate was shaken for 5-10 minutes on an orbital shaker to allow cell lysis, then Diluent (1% BSA in PBS in 0.5% NP40) (100 uL) was added to each well.
The Bmi-1 standard curve was prepared in Diluent at the following concentrations of protein: 8000, 4000, 2000, 1000, 500, 250, 125, 0 pg/mL The Bmi-1 Recombinant Protein Standard (Novus Biologicals PCGF4 Recombinant Protein (P01), catalog #H00000648-P01) used in the standard curve was stored at −80° C., and on first thaw, diluted to 10 ug/uL in Blocking Buffer (1% BSA in PBS; BSA: Fisher Scientific Catalog #1600-100) before being aliquoted and refrozen at −80° C. Aliquots can be kept at 4° C. and reused after first thaw, but only for 1-2 weeks. The Bmi-1 Recombinant Protein Standard contains a GST-fusion tag and thus will show up on western blots around 70 Kda.
The prepared ELISA plate was washed 3× with Wash Buffer (0.05% Tween-20 in PBS). The final wash was removed from the plate and the plate was blotted dry on paper towels. Blocking Buffer (300 uL) (1% BSA in PBS) was added per well. The plate was covered with a plate seal and incubated at room temperature for 1 hour. The blocked plate was washed 3× with Wash Buffer, the final wash was removed and the plate was blotted dry on paper towels. The previously prepared samples and standards were added (at 100 uL/well) and the plate was covered with a plate seal and incubated at 4° C. overnight.
The prepared ELISA plate was removed from 4° C., incubated at room temperature for 30 minutes, then washed and blotted dry as previously described for Day 3. The Second Antibody (Cell Signaling Rabbit anti-Bmi-1, Cat#2830) diluted to 1:600 in Blocking Buffer was added (100 uL) to each well, except as needed for background control wells. The plate was covered with a plate seal and incubated for 1.5 hrs at room temperature.
The ELISA plate was washed and blotted dry as previously described. The Third Antibody (Cell Signaling HRP conjugated anti-rabbit IgG (CellSignaling, Cat#:7074) diluted to 1:300 in Blocking Buffer was added (100 uL) to each well, except as needed for background control wells. The plate was incubated for 1 hr at room temperature.
The plate was washed and blotted dry as previously described, then prepared TMB substrate (TMB substrate kit, Pierce catalog #34021) (prepared by mixing kit reagents 1:1) (100 uL) was added per well. The plate was incubated for 20-30 minutes at room temperature in the dark, then Stop Solution (2 M sulfuric acid in water) (50 uL) was added per well. The plates were read at OD450 (experimental) and OD570 (reference).

IC50 | Compound
< 500 nM | Cc1nc2ccc(Cl)cn2c1-c1csc(Nc2ccc(C(C)C)cc2)n1 [Cpd 91, 4-(6-chloro-2-methylimidazo[1,2-a]pyridin-3-yl)-N-[4-(propan-2-yl)phenyl]-1,3-thiazol-2-amine]
< 500 nM | Cc1nc2ccc(Cl)cn2c1-c1csc(Nc2ccc(O)cc2)n1 [Cpd 92, 4-{[4-(6-chloro-2-methylimidazo[1,2-a]pyridin-3-yl)-1,3-thiazol-2-yl]amino}phenol]
< 500 nM | COCCOc1ccc(Nc2nc(-c3c(C)nc4ccc(Cl)cn34)cs2)cc1 [Cpd 93, 4-(6-chloro-2-methylimidazo[1,2-a]pyridin-3-yl)-N-[4-(2-methoxyethoxy)phenyl]-1,3-thiazol-2-amine]
< 500 nM | Cc1nc2c(O)cccn2c1-c1csc(Nc2ccc3c(c2)OCO3)n1 [Cpd 94, 3-[2-(1,3-benzodioxol-5-ylamino)-1,3-thiazol-4-yl]-2-methylimidazo[1,2-a]pyridin-8-ol]
< 500 nM | COc1ccc(Nc2nc(-c3c(C)nc4ccc(Cl)cn34)cs2)cc1Cl [Cpd 95, N-(3-chloro-4-methoxyphenyl)-4-(6-chloro-2-methylimidazo[1,2-a]pyridin-3-yl)-1,3-thiazol-2-amine]
< 500 nM | COc1ccc(Nc2nc(-c3c(C)nc4ccc(Cl)cn34)cs2)cc1F [Cpd 96, 4-(6-chloro-2-methylimidazo[1,2-a]pyridin-3-yl)-N-(3-fluoro-4-methoxyphenyl)-1,3-thiazol-2-amine]
< 500 nM | CC(=O)Nc1ccc(Nc2nc(-c3c(C)nc4ccc(Cl)cn34)cs2)cc1 [Cpd 97, N-(4-{[4-(6-chloro-2-methylimidazo[1,2-a]pyridin-3-yl)-1,3-thiazol-2-yl]amino}phenyl)acetamide]
< 500 nM | Cc1nc2ccc(Cl)cn2c1-c1csc(Nc2c(Cl)cccc2Cl)n1 [Cpd 98, 4-(6-chloro-2-methylimidazo[1,2-a]pyridin-3-yl)-N-(2,6-dichlorophenyl)-1,3-thiazol-2-amine]
< 500 nM | CC(=O)c1ccc(Nc2nc(-c3c(C)nc4ccc(Br)cn34)cs2)cc1 [Cpd 99, 1-(4-{[4-(6-bromo-2-methylimidazo[1,2-a]pyridin-3-yl)-1,3-thiazol-2-yl]amino}phenyl)ethanone]
< 500 nM | Cc1nc2ccc(Br)cn2c1-c1csc(Nc2ccc(Cl)cc2)n1 [Cpd 100, 4-(6-bromo-2-methylimidazo[1,2-a]pyridin-3-yl)-N-(4-chlorophenyl)-1,3-thiazol-2-amine]
< 500 nM | Cc1nc2ccc(Br)cn2c1-c1csc(Nc2ccc(I)cc2)n1 [Cpd 101, 4-(6-bromo-2-methylimidazo[1,2-a]pyridin-3-yl)-N-(4-iodophenyl)-1,3-thiazol-2-amine]
< 500 nM | Cc1nc2ccc(Br)cn2c1-c1csc(Nc2ccc(Br)cc2)n1 [Cpd 102, 4-(6-bromo-2-methylimidazo[1,2-a]pyridin-3-yl)-N-(4-bromophenyl)-1,3-thiazol-2-amine]
< 500 nM | COc1ccc(Nc2nc(-c3c(C)nc4ccc(Br)cn34)cs2)cc1Cl [Cpd 103, 4-(6-bromo-2-methylimidazo[1,2-a]pyridin-3-yl)-N-(3-chloro-4-methoxyphenyl)-1,3-thiazol-2-amine]
< 500 nM | COc1ccc(Nc2nc(-c3c(C)nc4ccc(Br)cn34)cs2)cc1F [Cpd 104, 4-(6-bromo-2-methylimidazo[1,2-a]pyridin-3-yl)-N-(3-fluoro-4-methoxyphenyl)-1,3-thiazol-2-amine]
< 500 nM | COc1ccc(Nc2nc(-c3cnc4ccc(Cl)cn34)cs2)cc1 [Cpd 105, 4-(6-chloroimidazo[1,2-a]pyridin-3-yl)-N-(4-methoxyphenyl)-1,3-thiazol-2-amine]
< 500 nM | CN(C)c1ccc(Nc2nc(-c3cnc4ccc(Cl)cn34)cs2)cc1 [Cpd 106, N′-[4-(6-chloroimidazo[1,2-a]pyridin-3-yl)-1,3-thiazol-2-yl]-N,N-dimethylbenzene-1,4-diamine]

IC50 | Compound
< 500 nM | CC(=O)c1ccc(Nc2nc(-c3cnc4ccc(Cl)cn34)cs2)cc1 [Cpd 107, 1-(4-{[4-(6-chloroimidazo[1,2-a]pyridin-3-yl)-1,3-thiazol-2-yl]amino}phenyl)ethanone]
< 500 nM | Clc1ccc2ncc(-c3csc(Nc4ccc(I)cc4)n3)n2c1 [Cpd 108, 4-(6-chloroimidazo[1,2-a]pyridin-3-yl)-N-(4-iodophenyl)-1,3-thiazol-2-amine]
< 500 nM | COc1ccc(Nc2nc(-c3cnc4ccc(Cl)cn34)cs2)cc1Cl [Cpd 109, 4-(6-chloroimidazo[1,2-a]pyridin-3-yl)-N-(3-chloro-4-methoxyphenyl)-1,3-thiazol-2-amine]
< 500 nM | COc1ccc(Nc2nc(-c3cnc4ccc(Cl)cn34)cs2)cc1F [Cpd 110, 4-(6-chloroimidazo[1,2-a]pyridin-3-yl)-N-(3-fluoro-4-methoxyphenyl)-1,3-thiazol-2-amine]
< 500 nM | Cc1nc2ccc(Cl)cn2c1-c1csc(Nc2ccc(Cl)c(Cl)c2)n1 [Cpd 111, 4-(6-chloro-2-methylimidazo[1,2-a]pyridin-3-yl)-N-(3,4-dichlorophenyl)-1,3-thiazol-2-amine]
< 500 nM | Cc1nc2ccc(Cl)cn2c1-c1csc(Nc2ccc(C(C)(C)C)cc2)n1 [Cpd 112, N-(4-tert-butylphenyl)-4-(6-chloro-2-methylimidazo[1,2-a]pyridin-3-yl)-1,3-thiazol-2-amine]
< 500 nM | Cc1nc2ccccn2c1-c1ccnc(Nc2ccc(Br)cc2)n1 [Cpd 114, N-(4-bromophenyl)-4-(2-methylimidazo[1,2-a]pyridin-3-yl)pyrimidin-2-amine]
< 500 nM | COc1ccc(Nc2nccc(-c3c(C)nc4ncccn34)n2)cc1 [Cpd 115, N-(4-methoxyphenyl)-4-(2-methylimidazo[1,2-a]pyrimidin-3-yl)pyrimidin-2-amine]
< 500 nM | CCOc1ccc(Nc2nccc(-c3c(C)nc4ncccn34)n2)cc1 [Cpd 116, N-(4-ethoxyphenyl)-4-(2-methylimidazo[1,2-a]pyrimidin-3-yl)pyrimidin-2-amine]
< 500 nM | CC(=O)c1ccc(Nc2nccc(-c3c(C)nc4ccccn34)n2)cc1 [Cpd 117, 1-(4-{[4-(2-methylimidazo[1,2-a]pyridin-3-yl)pyrimidin-2-yl]amino}phenyl)ethanone]
< 500 nM | Cc1nc2ccccn2c1-c1ccnc(Nc2cccc(N(C)C)c2)n1 [Cpd 118, N,N-dimethyl-N′-[4-(2-methylimidazo[1,2-a]pyridin-3-yl)pyrimidin-2-yl]benzene-1,3-diamine]
< 500 nM | Cc1nc2ccccn2c1-c1ccnc(Nc2ccc(I)cc2)n1 [Cpd 119, N-(4-iodophenyl)-4-(2-methylimidazo[1,2-a]pyridin-3-yl)pyrimidin-2-amine]
< 500 nM | Cc1nc2ncccn2c1-c1ccnc(Nc2ccc(I)cc2)n1 [Cpd 120, N-(4-iodophenyl)-4-(2-methylimidazo[1,2-a]pyrimidin-3-yl)pyrimidin-2-amine]
< 500 nM | Cc1nc2ncccn2c1-c1nc(Nc2ccc(Br)cc2)sc1C [Cpd 121, N-(4-bromophenyl)-5-methyl-4-(2-methylimidazo[1,2-a]pyrimidin-3-yl)-1,3-thiazol-2-amine]
< 500 nM | Cc1nc2ncccn2c1-c1nc(Nc2ccc(I)cc2)sc1C [Cpd 122, N-(4-iodophenyl)-5-methyl-4-(2-methylimidazo[1,2-a]pyrimidin-3-yl)-1,3-thiazol-2-amine]
< 500 nM | Cc1nc2ccccn2c1-c1ccnc(Nc2ccc3c(c2)OCO3)n1 [Cpd 123, N-(1,3-benzodioxol-5-yl)-4-(2-methylimidazo[1,2-a]pyridin-3-yl)pyrimidin-2-amine]

Compound | IC50
Cc1nc2ccccn2c1-c1ccnc(Nc2ccc(Cl)cc2)n1 [Cpd 113, N-(4-chlorophenyl)-4-(2-methylimidazo[1,2-a]pyridin-3-yl)pyrimidin-2-amine] | < 500 nM
